Source: the Kinase Knowledgebase extract (Sharma et al. 2016)

Columns and labels:
[1] = target: MAPK14 (UniProt Q16539); assay: Enzyme Assay
[2] = target: MAPK14 (human) (UniProt Q16539); assay: Cell-Based Assay; conditions: monocyte
[3] = target: MAPK14 (UniProt Q16539); assay: Enzyme Assay; remark: listed apart in the source

MAPK14 (human), sequence (Q16539 whole entry, looked up): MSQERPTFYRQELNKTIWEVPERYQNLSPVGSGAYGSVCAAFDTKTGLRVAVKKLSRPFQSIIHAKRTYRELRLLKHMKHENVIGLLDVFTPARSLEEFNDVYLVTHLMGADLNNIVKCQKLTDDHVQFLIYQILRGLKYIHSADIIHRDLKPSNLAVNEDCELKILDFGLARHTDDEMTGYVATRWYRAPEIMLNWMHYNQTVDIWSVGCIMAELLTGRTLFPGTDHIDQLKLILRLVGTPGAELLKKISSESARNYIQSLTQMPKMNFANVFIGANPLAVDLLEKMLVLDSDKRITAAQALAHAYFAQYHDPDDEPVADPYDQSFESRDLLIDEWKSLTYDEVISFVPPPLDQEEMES
MAPK14, sequence (Q16539 whole entry, looked up): as above

SMILES	IC50 [1] [nM]	IC50 [2] [nM]	IC50 [3] [nM]
Fc1ccc(-c2ncn(CCCN3CCOCC3)c2-c2ccccn2)cc1	> 10000		
CC(=O)OCCn1cnc(-c2ccc(F)cc2)c1-c1ccncc1	50		
Fc1ccc(-c2c(-c3ccncc3)nc3n2CCC3)cc1	> 10000		
CCSc1ccc(-c2nc3n(c2-c2ccncc2)CCC3)cc1	5600	> 20000	
O=C1CN(c2ccc(-c3nc(-c4ccc(F)cc4)c(-c4ccncc4)[nH]3)cc2)NO1	30		
Clc1cccc(-c2nc3n(c2-c2ccncc2)CCC3)c1	40	50	
CC(C)(C)C1=CC(O)(C(C)(C)C)CC(c2nc(-c3ccc(F)cc3)c(-c3ccncc3)[nH]2)=C1 (configuration not stated)	> 30000	> 5000	> 2500
Cc1cc(-c2[nH]c(-c3ccc([S+](C)[O-])cc3)nc2-c2ccc(F)cc2)ccn1 (configuration not stated)		430	
O=[N+]([O-])c1ccc(-c2nc(-c3ccc(F)cc3)c(-c3ccccc3)[nH]2)cc1	> 10000	> 5000	> 2500
Clc1nc2n(c1-c1ccncc1)CCC2	> 50000		
CC(=O)OCCc1nc(-c2ccncc2)c(-c2ccc(F)cc2)[nH]1	> 10000		
Brc1ccc(-c2nc3n(c2-c2ccncc2)CCC3)cc1	3200	700	
C[S+]([O-])c1ccc(-c2nc(-c3cccs3)c(-c3ccncc3)[nH]2)cc1 (configuration not stated)	460		
COc1ccc(-c2nc3n(c2-c2ccncc2)CCC3)cc1	3600	4200	
CSc1cccc(-c2ncn(CCCN3CCOCC3)c2-c2ccncc2)c1		1000	
C[S+]([O-])c1cccc(-c2ncn(CCCN3CCOCC3)c2-c2ccncc2)c1 (configuration not stated)		> 5000	
Fc1ccc(-c2ncn(C3CCN(Cc4ccccc4)CC3)c2-c2ccncc2)cc1	440		
Cc1cc(-c2c(-c3ccc(F)cc3)ncn2CCCN2CCOCC2)ccn1	3000		
Fc1ccc(-c2ncn(CCCNCc3ccccc3)c2-c2ccncc2)cc1		590	
CS(=O)(=O)c1ccc(-c2nc3n(c2-c2ccncc2)CCC3)cc1	> 10000	> 10000	
C[S+]([O-])c1ccc(-n2cnc(-c3ccc(F)cc3)c2-c2ccncc2)cc1 (configuration not stated)		2300	
C[S+]([O-])c1ccc(-c2nc3n(c2-c2ccncc2)CCC3)cc1 (configuration not stated)	> 10000	> 10000	
Clc1ccc(-c2nc3n(c2-c2ccncc2)CCC3)cc1	50		
CCc1nc[nH]c1-c1ccncc1	> 30000	> 5000	> 2500
Fc1ccc(-c2nc3n(c2-c2ccncc2)CCC3)cc1	66	170	
CSc1ccc(-c2nc3n(c2-c2ccncc2)CCC3)cc1	3400	2700	
Clc1ccccc1-c1nc2n(c1-c1ccncc1)CCC2	250		
Fc1ccc(-c2ncn(CCCN3CCOCC3)c2-c2cccnc2)cc1	> 10000		
